Assay results: US20230365546A1, “5-SUBSTITUTED INDOLE 3-AMIDE DERIVATIVES, PREPARATION METHOD AND USE THEREOF” (ORIGIANT PHARMACEUTICAL CO., LTD, priority 2020, published 2023)

Assays:
NEK2(h) = NEK2(h) (Homo sapiens (Human), UniProt P51955); experiment: Kinase Profiler 10 μM panel
Method: (§1) In vitro kinase assays were conducted using Kinase Profiler services provided by Eurofins. The experimental method was as follows: the small molecule compound to be tested (0.001-10 μM), the protein kinase to be tested were incubated with a buffer containing substrate, 10 mM magnesium acetate, and [γ-^33P-ATP], the reaction was started by adding Mg\TPmix, after incubation for a period of time at room temperature, a 3% phosphate solution was added to the buffer to stop the reaction. Subsequently, 10 μL of the reaction mixture was quantitatively pipetted onto P30 filter paper, which was washed three times with 75 mM phosphate solution and then once with methanol. The P30 filter paper was air-dried and scintillation fluid was added for scintillation counting.

WNK4(h) = WNK4(h) (Homo sapiens (Human), UniProt Q96J92); experiment: Kinase Profiler 10 μM panel
Method: as §1

SBK1(h) = SBK1(h) (Homo sapiens (Human), UniProt Q52WX2); experiment: Kinase Profiler 10 μM panel
Method: as §1

MAP4K4(h) = MAP4K4(h) (Homo sapiens (Human), UniProt O95819); experiment: Kinase Profiler 10 μM panel
Method: as §1

MuSK(h) = MuSK(h) (Homo sapiens (Human), UniProt O15146); experiment: Kinase Profiler 10 μM panel
Method: as §1

HIPK4(h) = HIPK4(h) (Homo sapiens (Human), UniProt Q8NE63); experiment: Kinase Profiler 10 μM panel
Method: as §1

SRPK1(h) = SRPK1(h) (Homo sapiens (Human), UniProt Q96SB4); experiment: Kinase Profiler 10 μM panel
Method: as §1

LIMK2(h) = LIMK2(h) (Homo sapiens (Human), UniProt P53671); experiment: Kinase Profiler 10 μM panel
Method: as §1

Lyn(m) = Lyn(m) (Mus musculus (Mouse), UniProt P25911); experiment: Kinase Profiler 10 μM panel
Method: as §1

[1] = system: 422 kinases (including mutants); experiment: Kinase selectivity profile over the Eurofins panel; format: biochemical; conditions: 10 μM, Tables 3 and 4, FIGS. 1 and 2
Excerpt: The selectivity profiles for Compounds 34 and 94 were plotted according to the data in Table 3 and Table 4. Wherein the red circular spot indicated the kinase were inhibited obviously, and the larger the radius of the red spot, the higher the inhibition against the kinase, and vice versa.

Snk(h) = Snk(h) (Homo sapiens (Human), UniProt Q9NYY3); experiment: Kinase Profiler 10 μM panel
Method: as §1

PKA(h) = PKA(h) (Homo sapiens (Human), UniProt P17612); experiment: Kinase Profiler 10 μM panel
Method: as §1

MLK3(h) = MLK3(h) (Homo sapiens (Human), UniProt Q16584); experiment: Kinase Profiler 10 μM panel
Method: The experimental method was as follows: the small molecule compound to be tested (0.001-10 μM), the protein kinase to be tested were incubated with a buffer containing substrate, 10 mM magnesium acetate, and [γ-^33P-ATP], the reaction was started by adding Mg\TPmix, after incubation for a period of time at room temperature, a 3% phosphate solution was added to the buffer to stop the reaction. Subsequently, 10 μL of the reaction mixture was quantitatively pipetted onto P30 filter paper, which was washed three times with 75 mM phosphate solution and then once with methanol. The P30 filter paper was air-dried and scintillation fluid was added for scintillation counting.

CHK2(I157T)(h) = CHK2(I157T)(h) (Homo sapiens (Human), UniProt O96017, I157T); experiment: Kinase Profiler 10 μM panel
Method: as §1

Pyk2(h) = Pyk2(h) (Homo sapiens (Human), UniProt Q14289); experiment: Kinase Profiler 10 μM panel
Method: as §1

STK32A(h) = STK32A(h) (Homo sapiens (Human), UniProt Q8WU08); experiment: Kinase Profiler 10 μM panel
Method: as §1

TTBK1(h) = TTBK1(h) (Homo sapiens (Human), UniProt Q5TCY1); experiment: Kinase Profiler 10 μM panel
Method: as §1

PKG1α(h) = PKG1α(h) (Homo sapiens (Human), UniProt Q13976); experiment: Kinase Profiler 10 μM panel
Method: as §1

cKit(V654A)(h) = cKit(V654A)(h) (Homo sapiens (Human), UniProt P10721, V654A); experiment: Kinase Profiler 10 μM panel
Method: as §1

PRP4(h) = PRP4(h) (Homo sapiens (Human), UniProt Q13523); experiment: Kinase Profiler 10 μM panel; format: biochemical
Method: as §1

NEK9(h) = NEK9(h) (Homo sapiens (Human), UniProt Q8TD19); experiment: Kinase Profiler 10 μM panel
Method: as §1

CSK(h) = CSK(h) (Homo sapiens (Human), UniProt P41240); experiment: Kinase Profiler 10 μM panel
Method: as §1

PKCβI(h) = PKCβI(h) (Homo sapiens (Human), UniProt P05771); experiment: Kinase Profiler 10 μM panel
Method: as §1

cKit(D816V)(h) = cKit(D816V)(h) (Homo sapiens (Human), UniProt P10721, D816V); experiment: Kinase Profiler 10 μM panel
Method: as §1

RIPK1(h) = RIPK1(h) (Homo sapiens (Human), UniProt Q13546); experiment: Kinase Profiler 10 μM panel
Method: as §1

CDK9/cyclin T1(h) = CDK9/cyclin T1(h) (Homo sapiens (Human), UniProt P50750); experiment: Kinase Profiler 10 μM panel
Method: as §1

CDK14/cyclinY(h) = CDK14/cyclinY(h) (Homo sapiens (Human), UniProt O94921); experiment: Kinase Profiler 10 μM panel
Method: as §1

CDK16/cyclinY(h) = CDK16/cyclinY(h) (Homo sapiens (Human), UniProt Q00536); experiment: Kinase Profiler 10 μM panel
Method: as §1

Rsk1(h) = Rsk1(h) (Homo sapiens (Human), UniProt Q15418); experiment: Kinase Profiler 10 μM panel
Method: as §1

MST4(h) = MST4(h) (Homo sapiens (Human), UniProt Q9P289); experiment: Kinase Profiler 10 μM panel
TAO3(h) = TAO3(h) (Homo sapiens (Human), UniProt Q9H2K8); experiment: Kinase Profiler 10 μM panel
TrkB(h) = TrkB(h) (Homo sapiens (Human), UniProt Q16620); experiment: Kinase Profiler 10 μM panel
Method: as §1

CK1γ1(h) = CK1γ1(h) (Homo sapiens (Human), UniProt Q9HCP0); experiment: Kinase Profiler 10 μM panel
Method: as §1

Sequence of TrkB(h) (Q16620 32-822): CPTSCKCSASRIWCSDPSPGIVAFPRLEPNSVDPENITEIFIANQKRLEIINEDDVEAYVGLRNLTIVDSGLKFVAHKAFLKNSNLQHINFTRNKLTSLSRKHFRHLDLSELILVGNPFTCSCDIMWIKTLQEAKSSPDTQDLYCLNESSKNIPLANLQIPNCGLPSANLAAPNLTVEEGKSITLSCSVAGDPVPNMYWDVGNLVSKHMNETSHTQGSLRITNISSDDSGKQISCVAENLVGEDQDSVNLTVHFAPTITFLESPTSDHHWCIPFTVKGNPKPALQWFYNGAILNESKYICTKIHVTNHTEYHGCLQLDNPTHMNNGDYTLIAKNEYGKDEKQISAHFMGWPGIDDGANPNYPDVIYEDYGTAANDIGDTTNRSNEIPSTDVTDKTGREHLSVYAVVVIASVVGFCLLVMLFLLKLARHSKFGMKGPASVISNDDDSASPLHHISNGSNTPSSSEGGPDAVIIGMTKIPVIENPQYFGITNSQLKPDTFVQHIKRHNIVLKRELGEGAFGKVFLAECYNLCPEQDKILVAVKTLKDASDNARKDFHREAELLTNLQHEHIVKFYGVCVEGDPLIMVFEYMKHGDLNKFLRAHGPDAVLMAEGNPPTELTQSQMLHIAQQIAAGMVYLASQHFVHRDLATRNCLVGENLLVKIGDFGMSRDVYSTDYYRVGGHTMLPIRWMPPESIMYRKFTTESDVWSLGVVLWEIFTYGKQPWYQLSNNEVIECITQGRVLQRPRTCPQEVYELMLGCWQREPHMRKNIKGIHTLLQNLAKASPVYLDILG
Sequence of RIPK1(h) (Q13546 whole entry): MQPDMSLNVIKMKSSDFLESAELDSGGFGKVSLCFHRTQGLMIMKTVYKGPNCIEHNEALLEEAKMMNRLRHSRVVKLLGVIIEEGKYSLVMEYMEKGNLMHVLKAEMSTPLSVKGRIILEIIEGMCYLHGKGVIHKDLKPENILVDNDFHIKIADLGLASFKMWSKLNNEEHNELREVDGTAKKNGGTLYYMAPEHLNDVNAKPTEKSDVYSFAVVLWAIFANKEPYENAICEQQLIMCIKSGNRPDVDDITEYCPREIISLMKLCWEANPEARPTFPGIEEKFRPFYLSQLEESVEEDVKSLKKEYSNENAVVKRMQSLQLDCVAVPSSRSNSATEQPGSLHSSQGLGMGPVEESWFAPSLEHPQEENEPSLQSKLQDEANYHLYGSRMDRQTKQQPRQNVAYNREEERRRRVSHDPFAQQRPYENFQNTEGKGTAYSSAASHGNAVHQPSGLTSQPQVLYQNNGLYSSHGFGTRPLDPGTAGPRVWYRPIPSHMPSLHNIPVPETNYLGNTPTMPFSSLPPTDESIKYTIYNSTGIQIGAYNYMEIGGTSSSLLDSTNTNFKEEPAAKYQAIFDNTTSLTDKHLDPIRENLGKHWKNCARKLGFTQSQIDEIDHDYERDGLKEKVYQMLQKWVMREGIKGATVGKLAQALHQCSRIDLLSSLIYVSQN
Sequence of SRPK1(h) (Q96SB4 whole entry): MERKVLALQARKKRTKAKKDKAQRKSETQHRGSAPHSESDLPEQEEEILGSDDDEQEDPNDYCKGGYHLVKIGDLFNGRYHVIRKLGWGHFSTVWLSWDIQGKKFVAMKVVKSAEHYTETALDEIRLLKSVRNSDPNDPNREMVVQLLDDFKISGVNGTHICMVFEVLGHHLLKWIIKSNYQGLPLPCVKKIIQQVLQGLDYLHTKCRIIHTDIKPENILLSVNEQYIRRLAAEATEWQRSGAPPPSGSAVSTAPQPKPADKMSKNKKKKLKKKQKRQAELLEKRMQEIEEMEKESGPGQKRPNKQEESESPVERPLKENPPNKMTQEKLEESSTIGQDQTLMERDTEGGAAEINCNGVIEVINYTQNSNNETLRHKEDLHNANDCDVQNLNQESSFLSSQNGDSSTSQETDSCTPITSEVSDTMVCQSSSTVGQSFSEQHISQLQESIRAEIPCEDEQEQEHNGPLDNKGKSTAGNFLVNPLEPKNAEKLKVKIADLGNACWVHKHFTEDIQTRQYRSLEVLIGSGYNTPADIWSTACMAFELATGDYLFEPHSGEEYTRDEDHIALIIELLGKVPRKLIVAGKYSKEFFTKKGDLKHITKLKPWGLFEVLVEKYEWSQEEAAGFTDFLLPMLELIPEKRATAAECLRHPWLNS
Sequence of cKit(V654A)(h) (P10721 26-976 V654A): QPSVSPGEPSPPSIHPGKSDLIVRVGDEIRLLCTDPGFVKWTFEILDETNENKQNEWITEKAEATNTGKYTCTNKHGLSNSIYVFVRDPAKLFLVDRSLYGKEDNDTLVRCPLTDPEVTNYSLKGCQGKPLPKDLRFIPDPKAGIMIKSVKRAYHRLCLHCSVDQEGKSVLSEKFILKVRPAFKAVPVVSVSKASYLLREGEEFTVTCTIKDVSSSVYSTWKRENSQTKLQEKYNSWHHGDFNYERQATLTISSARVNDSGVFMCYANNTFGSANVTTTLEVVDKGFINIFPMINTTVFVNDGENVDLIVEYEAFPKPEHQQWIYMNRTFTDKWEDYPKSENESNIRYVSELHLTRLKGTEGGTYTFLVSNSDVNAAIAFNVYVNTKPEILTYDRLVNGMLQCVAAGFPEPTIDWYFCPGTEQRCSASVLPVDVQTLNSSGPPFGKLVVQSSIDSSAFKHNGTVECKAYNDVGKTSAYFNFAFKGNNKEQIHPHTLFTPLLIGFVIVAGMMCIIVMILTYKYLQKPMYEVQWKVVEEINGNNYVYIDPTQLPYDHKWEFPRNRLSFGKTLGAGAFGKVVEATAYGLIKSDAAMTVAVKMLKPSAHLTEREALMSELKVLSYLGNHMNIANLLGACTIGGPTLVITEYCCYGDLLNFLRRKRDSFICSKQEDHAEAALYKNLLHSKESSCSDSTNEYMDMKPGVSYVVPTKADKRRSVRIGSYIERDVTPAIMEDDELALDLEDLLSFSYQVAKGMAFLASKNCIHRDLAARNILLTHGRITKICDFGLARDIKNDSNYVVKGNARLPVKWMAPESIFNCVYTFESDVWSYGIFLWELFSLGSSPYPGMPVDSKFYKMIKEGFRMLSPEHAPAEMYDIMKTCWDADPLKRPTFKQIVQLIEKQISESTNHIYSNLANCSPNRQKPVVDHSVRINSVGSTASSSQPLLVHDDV
Sequence of NEK2(h) (P51955 whole entry): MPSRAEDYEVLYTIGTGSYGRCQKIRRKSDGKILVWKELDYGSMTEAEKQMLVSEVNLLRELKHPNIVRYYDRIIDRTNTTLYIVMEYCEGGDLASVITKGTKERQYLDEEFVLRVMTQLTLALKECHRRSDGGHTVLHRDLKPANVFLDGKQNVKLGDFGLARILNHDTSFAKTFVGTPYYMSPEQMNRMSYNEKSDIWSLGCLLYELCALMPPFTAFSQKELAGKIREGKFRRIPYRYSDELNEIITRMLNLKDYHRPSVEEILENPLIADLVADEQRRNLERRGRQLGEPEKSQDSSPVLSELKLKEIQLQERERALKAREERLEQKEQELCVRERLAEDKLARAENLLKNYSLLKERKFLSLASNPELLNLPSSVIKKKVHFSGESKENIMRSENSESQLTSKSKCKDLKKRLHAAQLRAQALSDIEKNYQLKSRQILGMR
Sequence of PKCβI(h) (P05771 whole entry): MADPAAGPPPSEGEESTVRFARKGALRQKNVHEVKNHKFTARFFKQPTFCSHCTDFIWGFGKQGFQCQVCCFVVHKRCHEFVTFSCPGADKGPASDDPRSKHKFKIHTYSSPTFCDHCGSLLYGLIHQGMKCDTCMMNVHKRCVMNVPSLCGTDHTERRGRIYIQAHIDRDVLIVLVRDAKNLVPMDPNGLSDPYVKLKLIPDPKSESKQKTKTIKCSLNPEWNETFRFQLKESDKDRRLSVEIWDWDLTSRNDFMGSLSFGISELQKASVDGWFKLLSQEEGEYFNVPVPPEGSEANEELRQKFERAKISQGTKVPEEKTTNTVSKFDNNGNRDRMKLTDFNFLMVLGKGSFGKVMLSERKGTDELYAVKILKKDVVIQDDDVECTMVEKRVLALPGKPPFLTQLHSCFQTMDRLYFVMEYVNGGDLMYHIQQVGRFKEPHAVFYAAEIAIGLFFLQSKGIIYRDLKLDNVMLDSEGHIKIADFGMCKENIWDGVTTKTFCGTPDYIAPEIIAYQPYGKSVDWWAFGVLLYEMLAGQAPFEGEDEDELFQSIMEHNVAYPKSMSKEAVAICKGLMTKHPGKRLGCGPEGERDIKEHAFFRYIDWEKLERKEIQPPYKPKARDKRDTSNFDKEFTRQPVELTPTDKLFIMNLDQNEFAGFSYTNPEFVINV
Sequence of Snk(h) (Q9NYY3 whole entry): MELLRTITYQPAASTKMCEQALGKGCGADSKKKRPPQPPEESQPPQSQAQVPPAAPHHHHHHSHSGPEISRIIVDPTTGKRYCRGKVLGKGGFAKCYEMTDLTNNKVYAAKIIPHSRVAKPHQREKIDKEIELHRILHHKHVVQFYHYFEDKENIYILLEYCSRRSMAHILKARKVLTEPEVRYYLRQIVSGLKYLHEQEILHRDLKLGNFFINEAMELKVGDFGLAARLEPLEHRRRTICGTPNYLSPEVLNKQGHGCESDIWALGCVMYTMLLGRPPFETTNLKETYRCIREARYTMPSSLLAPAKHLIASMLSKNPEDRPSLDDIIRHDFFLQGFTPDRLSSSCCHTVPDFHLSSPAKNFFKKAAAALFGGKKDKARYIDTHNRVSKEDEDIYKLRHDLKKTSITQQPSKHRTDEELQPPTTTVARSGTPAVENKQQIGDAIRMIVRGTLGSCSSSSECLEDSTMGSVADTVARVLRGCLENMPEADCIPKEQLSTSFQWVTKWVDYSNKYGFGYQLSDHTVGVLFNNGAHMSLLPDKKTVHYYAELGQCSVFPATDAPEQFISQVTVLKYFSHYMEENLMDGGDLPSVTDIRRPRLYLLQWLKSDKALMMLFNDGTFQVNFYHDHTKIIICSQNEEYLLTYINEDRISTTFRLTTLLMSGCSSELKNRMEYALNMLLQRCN
Sequence of cKit(D816V)(h) (P10721 26-976 D816V): as the sequence (P10721 26-976 V654A) above, with A629V, D791V counted along it

## C[C@H](NC(=O)c1c[nH]c2ccc(-c3ccc4nc(NC(=O)C5CC5)sc4c3)cc12)c1cccc(F)c1 [Compound 34, (S)-5-(2-(cyclopropanecarboxamido)benzo[d]thiazol-6-yl)-N-(1-(3-fluorophenyl)ethyl)-1H-indole-3-carboxamide]
NEK2(h)
  Inhibition ratio: 21%
WNK4(h)
  Inhibition ratio: 17%
SBK1(h)
  Inhibition ratio: −12%
MAP4K4(h)
  Inhibition ratio: 98%
MuSK(h)
  Inhibition ratio: 88%
HIPK4(h)
  Inhibition ratio: 95%
SRPK1(h)
  Inhibition ratio: 29%
LIMK2(h)
  Inhibition ratio: 44%
Lyn(m)
  Inhibition ratio: 72%
[1]
  Kinase selectivity: good kinase selectivity
Snk(h)
  Inhibition ratio: 0%
PKA(h)
  Inhibition ratio: −12%
MLK3(h)
  Inhibition ratio: 101%
CHK2(I157T)(h)
  Inhibition ratio: 24%
Pyk2(h)
  Inhibition ratio: 45%
STK32A(h)
  Inhibition ratio: 16%
TTBK1(h)
  Inhibition ratio: 4%
PKG1α(h)
  Inhibition ratio: −12%
cKit(V654A)(h)
  Inhibition ratio: −1%
PRP4(h)
  Inhibition ratio: 4%
NEK9(h)
  Inhibition ratio: 13%
CSK(h)
  Inhibition ratio: 13%
PKCβI(h)
  Inhibition ratio: 27%
cKit(D816V)(h)
  Inhibition ratio: 0%
RIPK1(h)
  Inhibition ratio: 100%
CDK9/cyclin T1(h)
  Inhibition ratio: 41%
CDK14/cyclinY(h)
  Inhibition ratio: 47%
CDK16/cyclinY(h)
  Inhibition ratio: −30%
Rsk1(h)
  Inhibition ratio: 37%
MST4(h)
  Inhibition ratio: 11%
TAO3(h)
  Inhibition ratio: 62%
TrkB(h)
  Inhibition ratio: 100%
CK1γ1(h)
  Inhibition ratio: 5%

## C[C@H](NC(=O)c1cn(C)c2ccc(-c3ccn4nc(NC(=O)C5CC5)nc4c3)cc12)c1cccc(F)c1 [Compound 94, (S)-5-(2-(cyclopropanecarboxamido)-[1,2,4]triazolo[1,5-a]pyridin-7-yl)-N-(1-(3-fluorophenyl)ethyl)-1-methyl-1H-indole-3-carboxamide]
NEK2(h)
  Inhibition ratio/%: 24%
WNK4(h)
  Inhibition ratio/%: 48%
SBK1(h)
  Inhibition ratio/%: −19%
MAP4K4(h)
  Inhibition ratio/%: −3%
MuSK(h)
  Inhibition ratio/%: 13%
HIPK4(h)
  Inhibition ratio/%: 68%
SRPK1(h)
  Inhibition ratio/%: 50%
LIMK2(h)
  Inhibition ratio/%: 19%
Lyn(m)
  Inhibition ratio/%: 19%
[1]
  Kinase selectivity: good kinase selectivity
Snk(h)
  Inhibition ratio/%: 1%
PKA(h)
  Inhibition ratio/%: 55%
MLK3(h)
  Inhibition ratio/%: 102%
CHK2(I157T)(h)
  Inhibition ratio/%: 61%
Pyk2(h)
  Inhibition ratio/%: −5%
STK32A(h)
  Inhibition ratio/%: 55%
TTBK1(h)
  Inhibition ratio/%: 13%
PKG1α(h)
  Inhibition ratio/%: 12%
cKit(V654A)(h)
  Inhibition ratio/%: 68%
PRP4(h)
  Inhibition ratio/%: 5%
NEK9(h)
  Inhibition ratio/%: −10%
CSK(h)
  Inhibition ratio/%: 60%
PKCβI(h)
  Inhibition ratio/%: 6%
cKit(D816V)(h)
  Inhibition ratio/%: 75%
RIPK1(h)
  Inhibition ratio/%: 100%
CDK9/cyclin T1(h)
  Inhibition ratio/%: 61%
CDK14/cyclinY(h)
  Inhibition ratio/%: 55%
CDK16/cyclinY(h)
  Inhibition ratio/%: 51%
Rsk1(h)
  Inhibition ratio/%: 41%
MST4(h)
  Inhibition ratio/%: 12%
TAO3(h)
  Inhibition ratio/%: 6%
TrkB(h)
  Inhibition ratio/%: 0%
CK1γ1(h)
  Inhibition ratio/%: 19%
